Our source for the carcinogen call values is PubChem BioAssay AID1259411 (Chemical Carcinogenesis Research Information System (CCRIS), 2018).

Active and inactive are the calls of the source. No rule for the calls is given here.

This data set relates to rodent carcinogenicity bioassays, tumor incidence. In words: CCRIS carcinogenicity studies. An outline of the steps: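 NCI-built, expert-reviewed records of carcinogenicity and related test outcomes (mutagenicity, tumor promotion/inhibition) compiled from published and report sources, historical span 1985-2011, not updated.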

`CC(O)COC(C)(C)C` (stereo not drawn): the carcinogen call is, setting by setting: (Species: MOUSE, Strain/Sex: B6C3F1/FEMALE, Route: INHALATION, Dose: 0, 75, 300, 1200 PPM 6 HR/D, 5 D/WK FOR 104 WKS, Dose: 0, 75, 300, 1200 PPM 6 HR/D, 5 D/WK FOR 104 WKS, Tumor Site: Type of Lesion: LIVER: HEPATOCELLULAR ADENOMA, CARCINOMA OR HEPATOBLASTOMA) “active; positive”; (Species: MOUSE, Strain/Sex: B6C3F1/MALE, Route: INHALATION, Dose: 0, 75, 300, 1200 PPM 6 HR/D, 5 D/WK FOR 104 WKS, Dose: 0, 75, 300, 1200 PPM 6 HR/D, 5 D/WK FOR 104 WKS, Tumor Site: Type of Lesion: LIVER: HEPATOCELLULAR ADENOMA, CARCINOMA OR HEPATOBLASTOMA) “active; positive”; (Species: RAT, Strain/Sex: F344/N/FEMALE, Route: INHALATION, Dose: 0, 75, 300, 1200 PPM 6 HR/D, 5 D/WK FOR 104 WKS, Dose: 0, 75, 300, 1200 PPM 6 HR/D, 5 D/WK FOR 104 WKS) “inactive; negative”; (Species: RAT, Strain/Sex: F344/N/MALE, Route: INHALATION, Dose: 0, 75, 300, 1200 PPM 6 HR/D, 5 D/WK FOR 104 WKS, Dose: 0, 75, 300, 1200 PPM 6 HR/D, 5 D/WK FOR 104 WKS, Tumor Site: Type of Lesion: NO STATISTICALLY SIGNIFICANT INCREASE IN TUMORS BUT KIDNEY TUBULE TUMORS INCREASED SLIGHTLY) “equivocal”.

For the molecule `O.O.O.O.O.[Cd+2].[Cd+2].[Cl-].[Cl-].[Cl-].[Cl-]`, the carcinogen call was “inactive; negative” (Species: HAMSTER, Strain/Sex: SYRIAN/FEMALE, Route: SUBCUTANEOUS, Dose: 0, 30, 40, 50 UMOL/KG ONCE ON THE FOURTH DAY OF THE ESTROUS CYCLE (STUDY DURATION: 78 WK), Dose: 0, 30, 40, 50 UMOL/KG ONCE ON THE FOURTH DAY OF THE ESTROUS CYCLE (STUDY DURATION: 78 WK)); “active; positive” (Species: HAMSTER, Strain/Sex: SYRIAN/MALE, Route: SUBCUTANEOUS, Dose: 0, 20 UMOL/KG ONCE (STUDY DURATION: 104 WK), Tumor Site: Type of Lesion: ADRENAL GLAND: TUMOR); “inactive; negative” (Species: MOUSE, Strain/Sex: C57/MALE, Route: SUBCUTANEOUS, Dose: 0, 20 UMOL/KG ONCE (STUDY DURATION: 104 WK)); “active; positive” (Species: MOUSE, Strain/Sex: NFS/MALE, Route: SUBCUTANEOUS, Dose: 0, 20 UMOL/KG ONCE (STUDY DURATION: 104 WK), Tumor Site: Type of Lesion: LYMPHOID TISSUE: LYMPHOMA); “inactive; negative” (Species: RAT, Strain/Sex: WISTAR/FEMALE, Route: ORAL, Dose: 0, 1, 3, 10, 50 PPM IN DIET FOR 104 WK (STUDY DURATION: 2 YR), Dose: 0, 1, 3, 10, 50 PPM IN DIET FOR 104 WK (STUDY DURATION: 2 YR)); “inactive; negative” (Species: RAT, Strain/Sex: WISTAR/MALE, Route: ORAL, Dose: 0, 1, 3, 10, 50 PPM IN DIET FOR 104 WK (STUDY DURATION: 2 YR), Dose: 0, 1, 3, 10, 50 PPM IN DIET FOR 104 WK (STUDY DURATION: 2 YR)). Also, the carcinogen call runs as follows: (Species: RAT, Strain/Sex: WISTAR/MALE, Route: ORAL, Dose: 0, 25, 50, 100, 200 PPM IN DIET FOR 77 WK TO RATS MAINTAINED ON ZINC ADEQUATE (60 PPM) DIET (STUDY DURATION: 79 WK), Dose: 0, 25, 50, 100, 200 PPM IN DIET FOR 77 WK TO RATS MAINTAINED ON ZINC ADEQUATE (60 PPM) DIET (STUDY DURATION: 79 WK), Tumor Site: Type of Lesion: HEMATOPOIETIC SYSTEM: LEUKEMIA, TESTIS: TUMOR) “active; positive”; (Species: RAT, Strain/Sex: WISTAR/MALE, Route: ORAL, Dose: 0, 25, 50, 100, 200 PPM IN DIET FOR 77 WK TO RATS MAINTAINED ON ZINC DEFICIENT (7 PPM) DIET (STUDY DURATION: 79 WK), Dose: 0, 25, 50, 100, 200 PPM IN DIET FOR 77 WK TO RATS MAINTAINED ON ZINC DEFICIENT (7 PPM) DIET (STUDY DURATION: 79 WK), Tumor Site: Type of Lesion: HEMATOPOIETIC SYSTEM: LEUKEMIA) “active; positive”; (Species: RAT, Strain/Sex: WISTAR/MALE, Route: SUBCUTANEOUS, Dose: 0, 5, 10, 30 UMOL ONCE ADMINISTERED TO RATS FED DIETS ADEQUATE (60 PPM) IN ZINC (STUDY DURATION: 92 WK), Dose: 0, 5, 10, 30 UMOL ONCE ADMINISTERED TO RATS FED DIETS ADEQUATE (60 PPM) IN ZINC (STUDY DURATION: 92 WK), Tumor Site: Type of Lesion: TESTES: ADENOMA) “active; positive”; (Species: RAT, Strain/Sex: WISTAR/MALE, Route: SUBCUTANEOUS, Dose: 0, 5, 10, 30 UMOL ONCE ADMINISTERED TO RATS FED DIETS DEFICIENT (7 PPM) IN ZINC (STUDY DURATION: 92 WK), Dose: 0, 5, 10, 30 UMOL ONCE ADMINISTERED TO RATS FED DIETS DEFICIENT (7 PPM) IN ZINC (STUDY DURATION: 92 WK), Tumor Site: Type of Lesion: TESTES: ADENOMA, INJECTION SITE: SARCOMA) “active; positive”.

Turning to `O[C@H]1C=Cc2c(cc3ccc4cccc5ccc2c3c45)[C@@H]1O`, the carcinogen call is “active; positive” (Species: FISH, Strain/Sex: RAINBOW TROUT/MALE,FEMALE, Route: INJECTION, Dose: 0, 0.01, 1 UG INJECTED INTO NEWLY HATCHED SAC-FRY ONCE (STUDY DURATION: 9 MO), Dose: 0, 0.01, 1 UG INJECTED INTO NEWLY HATCHED SAC-FRY ONCE (STUDY DURATION: 9 MO), Tumor Site: Type of Lesion: LIVER: TUMOR); “active; positive” (Species: FISH, Strain/Sex: RAINBOW TROUT/MALE,FEMALE, Route: INJECTION, Dose: 0, 0.5, 2, 5 UG INJECTED INTO NEWLY HATCHED SAC-FRY (STUDY DURATION: 9 MO), Dose: 0, 0.5, 2, 5 UG INJECTED INTO NEWLY HATCHED SAC-FRY (STUDY DURATION: 9 MO), Tumor Site: Type of Lesion: LIVER: TUMOR); “active; positive” (Species: MOUSE, Strain/Sex: C57BL/FEMALE, Route: DERMAL, Dose: 0.15, 0.30 UMOL IN ACETONE/NH4OH (1000:1) EVERY 2 WK FOR 60 WK, Tumor Site: Type of Lesion: INTEGUMENTARY SYSTEM (SKIN): SQUAMOUS CELL CARCINOMA); “active; positive” (Species: MOUSE, Strain/Sex: SWISS/MALE,FEMALE, Route: INTRAPERITONEAL, Dose: 200 NMOL ON FIRST D OF LIFE, 400 NMOL ON D 8, 800 NMOL ON D 15, Tumor Site: Type of Lesion: LUNG: ADENOMA, HEMATOPOIETIC SYSTEM (LEUKEMIA), LYMPHATIC SYSTEM: MALIGNANT LYMPHOMA, Tumor Site: Type of Lesion: LUNG: ADENOMA, HEMATOPOIETIC SYSTEM (LEUKEMIA), LYMPHATIC SYSTEM: MALIGNANT LYMPHOMA).

As to `CCCI`, for the setting “Species: MOUSE, Route: INTRAPERITONEAL, Tumor Site: Type of Lesion: LUNG”, the carcinogen call was “active; positive”.

Take `COc1cc2c(c3oc(=O)c4c(c13)CCOC4=O)[C@@H]1C=CO[C@@H]1O2`: the carcinogen call is “active; positive” (Species: HUMAN, Route: ORAL, Tumor Site: Type of Lesion: LIVER) and “active; positive” (Species: RAT, Route: ORAL, Tumor Site: Type of Lesion: KIDNEY).

Turning to `CN(C)c1ccc(N=Nc2ccccc2)cc1`, the carcinogen call runs as follows: (Species: DOG, Route: ORAL, Tumor Site: Type of Lesion: URINARY BLADDER) “active; positive”; (Species: MOUSE, Route: SUBCUTANEOUS, Tumor Site: Type of Lesion: LIVER, INJECTION SITE) “active; positive”; (Species: MOUSE, Strain/Sex: B6C3F1/FEMALE, Route: INTRAPERITONEAL, Dose: 0, 0.3 UMOL/G IN TRIOCTANOIN ONCE ON DAY 1 FOLLOWED BY 0.4 UMOL/G ONCE ON DAY 8, 15 AND 22 (STUDY DURATION: 10 MO)) “inactive; negative”; (Species: MOUSE, Strain/Sex: B6C3F1/MALE, Route: INTRAPERITONEAL, Dose: 0, 0.017, 0.05, 0.15, 0.45 UMOL/G ONCE IN TRIOCTANOIN (STUDY DURATION: 10 MO), Dose: 0, 0.017, 0.05, 0.15, 0.45 UMOL/G ONCE IN TRIOCTANOIN (STUDY DURATION: 10 MO), Tumor Site: Type of Lesion: LIVER: HEPATOMA) “active; positive”; (Species: MOUSE, Strain/Sex: B6C3F1/MALE, Route: INTRAPERITONEAL, Dose: 0, 0.3 UMOL/G IN TRIOCTANOIN ONCE ON DAY 1 FOLLOWED BY 0.4 UMOL/G ONCE ON DAY 8, 15 AND 22 (STUDY DURATION: 10 MO), Tumor Site: Type of Lesion: LIVER: HEPATOMA) “active; positive”; (Species: RAT, Route: ORAL, Tumor Site: Type of Lesion: LIVER) “active; positive”. Further, the carcinogen call (Species: RAT, Strain/Sex: F344/MALE, Route: INTRAPERITONEAL, Dose: 0, 0.3 UMOL/G IN TRIOCTANOIN ONCE ON DAY 1 FOLLOWED BY 0.4 UMOL/G ONCE ON DAY 8, 15 AND 22 (STUDY DURATION: 10 MO)) was “inactive; negative”.
